For assay [1], the target named is T1, hNMB-receptor (Homo sapiens, UniProt P28336). In words: Whole cell radioligand binding, hNMB-receptor transfected Balb 3T3 cells. Particulars: for IC50: IC50 hNMB-R Balb-3T3, hNMB-receptor transfected Balb 3T3 cells, 125I-[D-Tyr0]NMB, 1 h, 22°C, mean ± S.E.
Assay [2] deals with T2, hGRP-receptor (Homo sapiens, UniProt P30550). In words: [3H]inositol phosphate generation, HuTu-80 cells. It counts as cell-based. The following applies: for [3H]IP HuTu-80 (hGRP-R) Ag/Antag: agonist/antagonist classification, up to 10 μM.
T2 sequence (P30550 whole entry): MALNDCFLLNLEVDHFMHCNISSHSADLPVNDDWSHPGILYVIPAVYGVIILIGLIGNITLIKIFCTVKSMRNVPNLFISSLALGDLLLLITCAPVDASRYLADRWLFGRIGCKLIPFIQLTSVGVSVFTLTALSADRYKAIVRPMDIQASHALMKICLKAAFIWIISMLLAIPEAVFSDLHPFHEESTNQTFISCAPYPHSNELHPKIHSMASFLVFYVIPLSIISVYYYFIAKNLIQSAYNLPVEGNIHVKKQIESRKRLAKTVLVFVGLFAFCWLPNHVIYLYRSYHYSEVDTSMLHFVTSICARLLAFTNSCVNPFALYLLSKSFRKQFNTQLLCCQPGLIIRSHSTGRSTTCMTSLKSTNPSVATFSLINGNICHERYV
Assay [3] has as its target T2, hGRP-receptor. In words: [3H]inositol phosphate generation, hGRP-receptor transfected Balb 3T3 cells. It counts as cell-based. The following applies: for [3H]IP hGRPR-R-Balb-3T3 Ag/Antag: agonist/antagonist classification, up to 10 μM.
The target of assay [4] is T2, hGRP-receptor. In words: Whole cell radioligand binding, HuTu-80 cells.
A further assay deals with T3, hBRS-3 receptor (Homo sapiens, UniProt P32247).
T3 sequence (P32247 1-399): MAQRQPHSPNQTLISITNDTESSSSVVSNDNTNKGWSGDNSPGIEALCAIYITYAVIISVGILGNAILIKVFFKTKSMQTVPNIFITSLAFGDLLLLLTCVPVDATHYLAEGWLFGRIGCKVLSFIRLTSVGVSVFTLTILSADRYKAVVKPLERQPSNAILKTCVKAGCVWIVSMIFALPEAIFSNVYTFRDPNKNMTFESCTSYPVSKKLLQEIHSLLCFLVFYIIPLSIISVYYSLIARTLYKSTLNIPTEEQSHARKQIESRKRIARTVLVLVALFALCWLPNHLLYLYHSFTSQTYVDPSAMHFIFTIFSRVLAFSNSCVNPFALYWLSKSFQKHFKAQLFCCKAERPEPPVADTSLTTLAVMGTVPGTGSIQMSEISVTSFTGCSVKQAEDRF
In words: Whole cell radioligand binding, hBRS-3 transfected Balb 3T3 cells.

Assay [5] deals with T2, hGRP-receptor. In words: Whole cell radioligand binding, hGRP-receptor transfected Balb 3T3 cells. Particulars: b34 values for receptors expressed in Balb 3T3 cells.
Assay [6] concerns the target T1, hNMB-receptor. In words: Whole cell radioligand binding, hNMB-receptor transfected NCI-H1299 cells.
Assay [7] addresses T1, hNMB-receptor. In words: cell-based. Particulars: for [3H]IP NCI-H1299 (hNMB-R) Ag/Antag: agonist/antagonist classification, up to 10 μM.
Assay [8] concerns the target T1, hNMB-receptor. Format: cell-based. The following applies: for [3H]IP hNMB-R-Balb-3T3 Ag/Antag: agonist/antagonist classification, up to 10 μM; for agonist activity at hNMB-receptor: concentrations up to 10 μM, hNMB-receptor transfected Balb 3T3 or NCI-H1299 cells.
The next assay has as its system hGRP-receptors. Particulars: cited from earlier work.
The target of assay [9] is T1, hNMB-receptor. The following applies: cited from earlier work.

Where “and” joins values, the source holds several entries; their conditions need not be identical. Identical values can stand only once. Like-named read-outs stand apart in the source and are kept apart here. Square brackets hold non-standard residues; d marks the D form. Peptide text beside a SMILES is read from it. dPhe(F5) = N[C@H](Cc1c(F)c(F)c(F)c(F)c1F)C(=O)O

The text below walks through data of PMC2766550 (Peptides, 2009).

As usually defined, the IC50 is the concentration that gives 50% inhibition. As a reminder, the Ki is the dissociation constant of the complex between target and ligand, obtained from inhibition or displacement.

T1 sequence (P28336 whole entry): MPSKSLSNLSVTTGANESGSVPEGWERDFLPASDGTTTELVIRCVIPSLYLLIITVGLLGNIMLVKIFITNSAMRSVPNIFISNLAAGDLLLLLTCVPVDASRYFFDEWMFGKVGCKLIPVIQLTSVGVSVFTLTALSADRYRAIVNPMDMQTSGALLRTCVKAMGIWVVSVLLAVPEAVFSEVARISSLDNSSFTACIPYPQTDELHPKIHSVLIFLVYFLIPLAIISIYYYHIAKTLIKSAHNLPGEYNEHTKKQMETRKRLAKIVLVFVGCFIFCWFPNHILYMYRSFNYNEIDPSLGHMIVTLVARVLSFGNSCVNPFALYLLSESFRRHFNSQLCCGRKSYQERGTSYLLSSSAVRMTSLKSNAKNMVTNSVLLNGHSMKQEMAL

As to `CCCNC(=O)[C@H](CC(C)C)NC(=O)[C@H](Cc1c[nH]cn1)NC(=O)CNC(=O)[C@@H](NC(=O)[C@H](C)NC(=O)[C@H](Cc1c[nH]c2ccccc12)NC(=O)[C@H](CCC(N)=O)NC(=O)[C@H](N)Cc1ccccc1)C(C)C` [Peptide 11, [D-Phe^6-Bn](6-13)Propylamide (PA)], the IC50 at hNMB-receptor [1] was determined as 2.44 ± 0.16 µM; against hGRP-receptor [2], 0.0363 ± 0.001 µM; against hGRP-receptor [3], 0.031 ± 0.001 µM; on hGRP-receptor [4], 0.00039 ± 0.00012 µM; at hBRS-3 receptor, 1.91 ± 0.3 µM; at hNMB-receptor [6] it was 3.09 ± 0.07 µM. Further, the “selectivity for hGRP-receptor over hNMB-receptor (binding affinities)” value (“selectivity for hGRP-receptor” below) on hGRP-receptor [5] is ≥ 1,000 fold.
With `COC(=O)[C@H](CC(C)C)NC(=O)[C@H](Cc1c[nH]cn1)NC(=O)CNC(=O)[C@@H](NC(=O)[C@H](C)NC(=O)[C@H](Cc1c[nH]c2ccccc12)NC(=O)[C@H](CCC(N)=O)NC(=O)[C@H](N)Cc1ccccc1)C(C)C` [Peptide 17, [D-Phe^6]Bn-(6-13)Methyl ester (ME)], the IC50 on hNMB-receptor [1] was greater than 10 µM; against hGRP-receptor [2] it was 0.0109 ± 0.0015 µM; against hNMB-receptor [7] it was greater than 10 µM; at hGRP-receptor [3], 0.0155 ± 0.001 µM; on hGRP-receptor [4], 0.00398 ± 0.0008 µM; at hBRS-3 receptor, 5.29 ± 1.99 µM. The IC50 on hNMB-receptor [6] is greater than 10 µM. The “selectivity for hGRP-receptor” value on hGRP-receptor [5] is listed as > 10,000 fold.
As for `COC(=O)[C@H](CC(C)C)NC(=O)[C@H](Cc1c[nH]cn1)NC(=O)[C@@H](C)NC(=O)[C@@H](NC(=O)[C@H](C)NC(=O)[C@H](Cc1c[nH]c2ccccc12)NC(=O)[C@H](CCC(N)=O)NC(=O)[C@H](N)Cc1c(F)c(F)c(F)c(F)c1F)C(C)C` [Peptide 18, [D-F-5, Phe^6, D-Ala^11]Bn(6-13)Metyl ester (ME)] (H-[dPhe(F5)]QWAV[dA]HL-OMe), the IC50 on hNMB-receptor [1] is greater than 10 µM; against hGRP-receptor [2], 0.0042 ± 0.0009 µM; on hGRP-receptor [3], 0.0036 ± 0.0002 µM; on hGRP-receptor [4] it was 0.00012 ± 1e-05 µM; on hBRS-3 receptor, greater than 10 µM; at hNMB-receptor [6] it was greater than 10 µM. Moreover, on hGRP-receptor [5], the “selectivity for hGRP-receptor” value was > 11,000 fold and > 10,000 fold.
In the case of `CCOC(=O)[C@H](CC(C)C)NC(=O)[C@H](Cc1c[nH]cn1)NC(=O)CNC(=O)[C@@H](NC(=O)[C@H](C)NC(=O)[C@H](Cc1c[nH]c2ccccc12)NC(=O)[C@H](CCC(N)=O)NC(=O)[C@H](N)Cc1ccccc1)C(C)C` [Peptide 20, [D-Phe^6]Bn-(6-13)Ethyl ester], the IC50 on hNMB-receptor [1] is greater than 10 µM; against hGRP-receptor [2] it was 0.0014 ± 0.0008 µM; at hGRP-receptor [3], 0.002 ± 0.0003 µM; on hGRP-receptor [4], 0.00014 ± 3e-05 µM; on hBRS-3 receptor, 5.3 ± 1.4 µM; on hNMB-receptor [6] it was greater than 10 µM. In addition, the “selectivity for hGRP-receptor” value at hGRP-receptor [5] was > 10,000 fold.
Turning to `COc1ccc(C2(CNC(=O)C(C)(Cc3c[nH]c4ccccc34)NC(=O)Nc3ccc([N+](=O)[O-])cc3)CCCCC2)nc1` (stereo not drawn) [Peptide 33, 3-(1H-Indol-3-yl)-N-[1-(5-methoxy-pyridin-2-yl)-cyclohexylmethyl]-2-methyl-2-[3-(4-nitro-phenyl)-ureido]-propionamide, reference compound], on hNMB-receptor [8], the “[3H]IP hNMB-R-Balb-3T3 Ag/Antag” value was “Antag” and the “agonist activity at hNMB-receptor” value is “did not have agonist activity”. In addition, at hGRP-receptor [2], it took 0.275 ± 0.013 µM to reach half-maximal inhibition (IC50) and the “[3H]IP HuTu-80 (hGRP-R) Ag/Antag” value is “Antag”. For the same compound, the “[3H]IP NCI-H1299 (hNMB-R) Ag/Antag” value on hNMB-receptor [7] is “Antag”. For the same compound, the “affinity for hGRP-receptors in a second study” value in the assay on hGRP-receptors is 20 to 30 nM. Moreover, the Ki on hGRP-receptors (read-out: Ki for hGRP-receptors in a previous study) was 0.001 µM. The “[3H]IP hGRPR-R-Balb-3T3 Ag/Antag” value on hGRP-receptor [3] is given as “Antag”. In addition, the IC50 at hGRP-receptor [4] was found to be 0.17 ± 0.011 µM. Also, on hBRS-3 receptor, the IC50 is greater than 10 µM.
Consider `CC(Cc1c[nH]c2ccccc12)(NC(=O)Nc1ccc([N+](=O)[O-])cc1)C(=O)NCC1(c2ccccn2)CCCCC1` (stereo not drawn) [Peptide 34, 3-(1H-Indol-3-yl)-2-methyl-2-[3(4-nitro-phenyl)-ureido]-N-(1-pyridin-2-yl-cyclohexylmethyl)-propionamide, reference compound], for which the IC50 on hNMB-receptor [1] is 0.00051 ± 2e-05 µM; on hGRP-receptor [2], 1.78 ± 0.057 µM; at hNMB-receptor [7], 0.0245 ± 0.0012 µM; against hGRP-receptor [3], greater than 3 µM; at hGRP-receptor [4], 1.74 ± 0.105 µM; on hNMB-receptor [9] (read-out: IC50 for hNMB-receptors, other studies on human cells) it was 0.015 µM. Moreover, the IC50 at hBRS-3 receptor is greater than 10 µM; at hNMB-receptor [6], 0.00025 ± 2e-05 µM. The “selectivity for hNMB-receptor over hGRP-receptor (binding affinities)” value at hNMB-receptor [1] (listed as PD168368) was 7,000 fold. Moreover, the “selectivity for hNMB-receptor over hGRP-receptor based on potency for inhibiting agonist-stimulated [3H]IP” value at hNMB-receptor [8] lay in the range of 33 to 100 fold. On hNMB-receptor [8], the “[3H]IP hNMB-R-Balb-3T3 Ag/Antag” value is given as “Antag”. The “agonist activity at hNMB-receptor” value at hNMB-receptor [8] is reported as “did not have agonist activity”. On hGRP-receptor [2] (Table 5 species comparison, human values of this study (HuTu-80)), the “hGRPR Ag/Antag” value is on record as “Antag”. For the same compound, on hGRP-receptor [2], the “[3H]IP HuTu-80 (hGRP-R) Ag/Antag” value is recorded as “Antag”. In addition, the “hNMBR Ag/Antag” value on hNMB-receptor [7] (Table 5 species comparison, human values of this study (NCI-H1299)) was “Antag”. Moreover, the “[3H]IP NCI-H1299 (hNMB-R) Ag/Antag” value on hNMB-receptor [7] is recorded as “Antag”. In addition, the “[3H]IP hGRPR-R-Balb-3T3 Ag/Antag” value on hGRP-receptor [3] is given as “No act”. Moreover, the “hNMB- or rNMB-receptor selectivity in other studies” value at hNMB-receptor [9] is 40 fold.
